Data: patent US11352350B2, “IRAK degraders and uses thereof” (Kymera Therapeutics, Inc., priority 2018, dated 2022)

Key:
IKAROS [1] = target: T1, IKAROS (Homo sapiens (Human), UniProt Q13422+Q96SW2); experiment: IKAROS degradation in OCI-LY10 (DC50); assay type: cell-based
U2932 = U2932 viability, CTG; assay type: cell-based; details: Homo sapiens, U2932; MYD88 WT; read-out: U2932 CTG IC50
OCI-LY10 [2] = experiment: CTG Cell Viability Assay - OCI-LY10; assay type: cell-based, human; details: Homo sapiens, OCI-Ly10, 96 h, OCI-LY10, 4 days; read-out: CTG Cell Viability Assay - OCI-LY10: Average external-IC50
How it was run: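 OCI-LY10 cells exposed to 9-dose, 1:3 dilutions from 10 μM top (0.2% DMSO) for 4 days at 37° C, 5% CO2. Viability by CellTiter-Glo luminescence; IC50 from three-parameter logistic fit.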

OCI-LY10 [3] = experiment: OCI-LY10 viability, CTG; assay type: cell-based; details: Homo sapiens, OCI-Ly10; MYD88 MUT; read-out: OCI-LY10 CTG IC50
OCI-LY19 = OCI-LY19 viability, CTG; assay type: cell-based; details: Homo sapiens, OCI-LY19; MYD88 WT; read-out: OCI-LY19 CTG IC50
SU-DHL2 = SU-DHL2 viability, CTG; assay type: cell-based; details: Homo sapiens, SU-DHL-2; MYD88 MUT; read-out: SU-DHL2 CTG IC50
AIOLOS [4] = target: T2, AIOLOS (Homo sapiens (Human), UniProt Q96SW2+Q9UKT9); experiment: AIOLOS degradation in OCI-LY10 (DC50); assay type: cell-based
T2 sequence (Q9UKT9 whole entry): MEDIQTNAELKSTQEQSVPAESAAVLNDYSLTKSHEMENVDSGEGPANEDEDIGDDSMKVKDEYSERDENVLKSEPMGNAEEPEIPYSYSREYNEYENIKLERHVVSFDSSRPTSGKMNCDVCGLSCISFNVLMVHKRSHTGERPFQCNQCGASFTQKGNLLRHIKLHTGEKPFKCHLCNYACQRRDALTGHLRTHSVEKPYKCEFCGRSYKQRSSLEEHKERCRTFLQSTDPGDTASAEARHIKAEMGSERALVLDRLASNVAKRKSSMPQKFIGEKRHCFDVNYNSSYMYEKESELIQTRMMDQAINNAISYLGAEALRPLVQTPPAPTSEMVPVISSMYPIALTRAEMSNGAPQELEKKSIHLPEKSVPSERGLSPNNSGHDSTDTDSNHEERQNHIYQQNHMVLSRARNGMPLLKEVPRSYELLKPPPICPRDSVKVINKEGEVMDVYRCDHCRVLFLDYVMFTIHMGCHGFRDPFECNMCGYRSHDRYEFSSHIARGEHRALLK
T2 sequence (Q96SW2 whole entry): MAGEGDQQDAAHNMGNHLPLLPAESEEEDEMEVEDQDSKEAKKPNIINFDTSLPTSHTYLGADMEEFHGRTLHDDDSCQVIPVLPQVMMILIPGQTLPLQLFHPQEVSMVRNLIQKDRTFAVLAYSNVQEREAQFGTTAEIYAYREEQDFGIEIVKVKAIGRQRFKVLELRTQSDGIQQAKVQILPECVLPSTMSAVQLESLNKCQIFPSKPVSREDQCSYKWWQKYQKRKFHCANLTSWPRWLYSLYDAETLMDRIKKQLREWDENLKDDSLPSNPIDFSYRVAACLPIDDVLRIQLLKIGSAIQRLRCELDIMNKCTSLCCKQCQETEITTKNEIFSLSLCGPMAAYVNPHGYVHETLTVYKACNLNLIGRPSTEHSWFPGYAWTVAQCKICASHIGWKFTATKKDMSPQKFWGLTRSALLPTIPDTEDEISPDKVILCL
T2 sequence (Q16531 whole entry partner): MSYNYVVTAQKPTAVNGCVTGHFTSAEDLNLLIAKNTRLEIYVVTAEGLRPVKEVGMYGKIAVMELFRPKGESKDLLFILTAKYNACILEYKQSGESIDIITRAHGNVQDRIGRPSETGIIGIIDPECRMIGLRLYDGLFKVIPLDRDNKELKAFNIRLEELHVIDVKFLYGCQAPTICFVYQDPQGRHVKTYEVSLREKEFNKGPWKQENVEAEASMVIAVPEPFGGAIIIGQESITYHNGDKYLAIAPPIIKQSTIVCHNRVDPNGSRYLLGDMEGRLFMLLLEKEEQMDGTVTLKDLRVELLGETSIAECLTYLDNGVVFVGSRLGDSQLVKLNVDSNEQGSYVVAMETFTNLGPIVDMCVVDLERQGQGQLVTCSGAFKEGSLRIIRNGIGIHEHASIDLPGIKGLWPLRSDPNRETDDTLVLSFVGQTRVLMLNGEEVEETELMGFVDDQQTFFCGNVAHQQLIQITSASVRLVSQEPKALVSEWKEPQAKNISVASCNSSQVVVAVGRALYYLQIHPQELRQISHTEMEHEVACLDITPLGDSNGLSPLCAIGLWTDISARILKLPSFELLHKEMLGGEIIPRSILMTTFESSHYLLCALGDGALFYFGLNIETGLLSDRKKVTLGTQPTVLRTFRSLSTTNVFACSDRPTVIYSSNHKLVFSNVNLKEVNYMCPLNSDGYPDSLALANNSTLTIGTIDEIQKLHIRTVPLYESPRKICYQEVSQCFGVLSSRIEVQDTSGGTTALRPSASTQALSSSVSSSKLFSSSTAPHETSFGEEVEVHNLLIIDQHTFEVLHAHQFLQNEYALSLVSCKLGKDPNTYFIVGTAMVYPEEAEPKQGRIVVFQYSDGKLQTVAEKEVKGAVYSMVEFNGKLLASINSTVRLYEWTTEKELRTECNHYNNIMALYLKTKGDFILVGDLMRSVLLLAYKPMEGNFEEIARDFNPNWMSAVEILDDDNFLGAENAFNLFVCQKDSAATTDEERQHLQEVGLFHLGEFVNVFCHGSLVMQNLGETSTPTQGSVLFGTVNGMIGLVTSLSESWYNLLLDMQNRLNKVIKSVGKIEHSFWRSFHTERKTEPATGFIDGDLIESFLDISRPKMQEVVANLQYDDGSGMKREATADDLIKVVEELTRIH

IRAK4 [5] = target: T3, IRAK4 (Homo sapiens (Human), UniProt Q9NWZ3); experiment: IRAK4 MSD degradation in OCI-LY10; assay type: cell-based; details: MSD
T3 sequence (Q9NWZ3 whole entry): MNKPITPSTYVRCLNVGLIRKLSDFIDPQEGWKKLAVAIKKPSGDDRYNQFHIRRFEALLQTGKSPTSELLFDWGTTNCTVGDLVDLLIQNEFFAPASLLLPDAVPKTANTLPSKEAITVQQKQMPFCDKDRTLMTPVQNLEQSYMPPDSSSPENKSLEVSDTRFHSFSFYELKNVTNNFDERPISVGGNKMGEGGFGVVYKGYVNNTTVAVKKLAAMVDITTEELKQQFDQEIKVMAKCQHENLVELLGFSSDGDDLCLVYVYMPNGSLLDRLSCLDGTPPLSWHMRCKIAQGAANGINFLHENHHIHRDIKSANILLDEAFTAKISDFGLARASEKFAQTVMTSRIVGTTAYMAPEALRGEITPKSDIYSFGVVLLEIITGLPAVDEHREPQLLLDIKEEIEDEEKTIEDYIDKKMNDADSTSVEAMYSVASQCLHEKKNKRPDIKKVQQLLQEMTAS
How it was run: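 OCI-LY10 cells treated with 8-point 1:3 dilutions (top 1 to 10 μM final) for 4 to 24 h at 37° C. Lysate IRAK4 measured by MSD sandwich immunoassay (2H9 capture, Y279 detection, SULFO-TAG anti-rabbit). DC50 from three-parameter logistic fit.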

SU-DHL6 = SU-DHL6 viability, CTG; assay type: cell-based; details: Homo sapiens, SU-DHL-6; MYD88 WT; read-out: SU-DHL6 CTG IC50
IRAK4 [6] = target: T3, IRAK4; experiment: IRAK4 degradation in OCI-LY10 (DC50); assay type: cell-based; details: read-out: IRAK4 OCI-LY10 DC50
IRAK4 [7] = target: T3, IRAK4; experiment: IRAK4 WB degradation (DC50); assay type: cell-based
OCI-LY3 = OCI-LY3 viability, CTG; assay type: cell-based; details: Homo sapiens, MYD88 MUT
IRAK4 [8] = target: T3, IRAK4; experiment: IRAK4 degradation in OCI-LY10 tumor xenograft; assay type: in vivo; details: OCI-LY10 tumor xenograft, sample time 24 h
AIOLOS [9] = target: T2, AIOLOS; experiment: Aiolos degradation in OCI-LY10 tumor xenograft; assay type: in vivo; details: sample time 24 h
IFIT1 = experiment: Interferon response IFIT1 in OCI-LY10 tumor xenograft; assay type: in vivo; details: sample time 24 h
IFIT3 = experiment: Interferon response IFIT3 in OCI-LY10 tumor xenograft; assay type: in vivo; details: sample time 24 h
IKAROS [10] = target: T1, IKAROS; experiment: Ikaros degradation in OCI-LY10 tumor xenograft; assay type: in vivo; details: sample time 24 h
OCI-LY10 tumor xenograft = experiment: OCI-LY10 tumor xenograft, tumor volume; assay type: in vivo; details: single agent, PO, QD, 24, 72, and 240 mg/kg (FIG. 21)
[11] = OCI-LY10, 4 hrs, read-out: IRAK4 MSD degradation in OCI-LY10 at 4 hrs: Average external-Abs DC50

T1 sequence (Q13422 whole entry): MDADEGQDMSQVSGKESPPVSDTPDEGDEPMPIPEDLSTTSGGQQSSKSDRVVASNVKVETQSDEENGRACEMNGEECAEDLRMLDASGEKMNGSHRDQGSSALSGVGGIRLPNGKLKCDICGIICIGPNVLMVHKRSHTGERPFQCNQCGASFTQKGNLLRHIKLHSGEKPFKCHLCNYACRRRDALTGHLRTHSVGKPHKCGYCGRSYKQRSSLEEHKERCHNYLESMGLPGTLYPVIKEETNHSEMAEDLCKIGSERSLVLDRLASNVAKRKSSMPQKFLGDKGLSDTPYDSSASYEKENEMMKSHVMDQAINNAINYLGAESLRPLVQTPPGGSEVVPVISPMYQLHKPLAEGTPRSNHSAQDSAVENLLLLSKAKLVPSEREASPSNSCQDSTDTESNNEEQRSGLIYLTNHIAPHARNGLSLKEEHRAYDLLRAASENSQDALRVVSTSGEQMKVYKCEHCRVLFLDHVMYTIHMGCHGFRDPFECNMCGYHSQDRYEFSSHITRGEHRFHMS
T1 sequence (Q96SW2 whole entry): as the sequence (Q96SW2 whole entry) above
T1 sequence (Q16531 whole entry partner): as the sequence (Q16531 whole entry partner) above

Row | SMILES | DC50 (IKAROS [1]) | IC50 (U2932) | IC50 (OCI-LY10 [2]) | IC50 (OCI-LY10 [3]) | IC50 (OCI-LY19) | IC50 (SU-DHL2) | DC50 (AIOLOS [4]) | DC50 (IRAK4 [5]; [11]) | IC50 (SU-DHL6) | DC50 (IRAK4 [6]) | DC50 (IRAK4 [7]) | IC50 (OCI-LY3) | also measured
1 | CN(CCCOCCNc1cccc2c1C(=O)N(C1CCC(=O)NC1=O)C2=O)C[C@H]1CC[C@H](n2cc(NC(=O)c3coc(-c4ccnc(NCC5CC5)c4)n3)c(C(F)F)n2)CC1 (stereo partly drawn) [I-168] | 5 nM | 410 nM | < 50 nM | 31 nM | 430 nM | 64 nM | 5 nM | 10 to 100 nM | 1900 nM | 20 nM | 78 nM | 290 nM | DC50 (IRAK4 [5]; OCI-LY10, 24 hrs, read-out: IRAK4 MSD degradation in OCI-LY10 at 24 hrs: Average external-Abs DC50): < 10 nM
2 | O=C1CCC(N2C(=O)c3cccc(NCCCOC4CCN(C[C@H]5CC[C@H](n6cc(NC(=O)c7cnn8ccc(N9CCOCC9)nc78)c(C(F)F)n6)CC5)CC4)c3C2=O)C(=O)N1 (stereo partly drawn) [I-208] | 3 nM | 1800 nM | < 50 nM | 36 nM | 1700 nM | 366 nM | < 3 nM | 10 to 100 nM | 833 nM | 20 nM | 130 nM | 3000 nM | IRAK4 ↓ (% Control) (IRAK4 [8]; 24 mg/kg PO QD): 57.8 % Control; IRAK4 ↓ (% Control) (IRAK4 [8]; 72 mg/kg PO QD): 78.7 % Control; IRAK4 ↓ (% Control) (IRAK4 [8]; 240 mg/kg PO QD): 86.5 % Control; Aiolos ↓ (% Control) (AIOLOS [9]; 24 mg/kg PO QD): 30.9 % Control; Aiolos ↓ (% Control) (AIOLOS [9]; 72 mg/kg PO QD): 62.4 % Control; Aiolos ↓ (% Control) (AIOLOS [9]; 240 mg/kg PO QD): 68.6 % Control; Interferon Response IFIT1 Increase (Fold) (IFIT1; 24 mg/kg PO QD): >24.4 Fold; Interferon Response IFIT1 Increase (Fold) (IFIT1; 72 mg/kg PO QD): >41.5 Fold; Interferon Response IFIT1 Increase (Fold) (IFIT1; 240 mg/kg PO QD): >38.7 Fold; Interferon Response IFIT3 Increase (Fold) (IFIT3; 24 mg/kg PO QD): >43.1 Fold; Interferon Response IFIT3 Increase (Fold) (IFIT3; 72 mg/kg PO QD): >64.0 Fold; Interferon Response IFIT3 Increase (Fold) (IFIT3; 240 mg/kg PO QD): >59.7 Fold; Ikaros ↓ (% Control) (IKAROS [10]; 24 mg/kg PO QD): 46.3 % Control; Ikaros ↓ (% Control) (IKAROS [10]; 72 mg/kg PO QD): 71.0 % Control; Ikaros ↓ (% Control) (IKAROS [10]; 240 mg/kg PO QD): 81.2 % Control; Regression of OCI-LY10 tumor xenograft (OCI-LY10 tumor xenograft): with regression; Regression of OCI-LY10 tumor xenograft (OCI-LY10 tumor xenograft; listed as 1-208): drives regression
